Assay results reported in ChEMBL document CHEMBL5236590, “Discovery of Novel N-(5-(Pyridin-3-yl)-1H-indazol-3-yl)benzamide Derivatives as Potent Cyclin-Dependent Kinase 7 Inhibitors for the Treatment of Autosomal Dominant Polycystic Kidney Disease” (J Med Chem, 2022).
Activity calls are given as the source filed them. The calls are words filed in the database; no cut-off is given here.

What was measured:
[1] = target: T1, Cyclin-dependent kinase 7 (Homo sapiens, UniProt P50613); assay: Inhibition of CDK7 (unknown origin) assessed as phosphorylation of ULight 4EBP1 peptide substrate measured after 2 hrs by FRET-based LANCE Ultra KinSelect assay
T1 sequence (P50613 whole entry): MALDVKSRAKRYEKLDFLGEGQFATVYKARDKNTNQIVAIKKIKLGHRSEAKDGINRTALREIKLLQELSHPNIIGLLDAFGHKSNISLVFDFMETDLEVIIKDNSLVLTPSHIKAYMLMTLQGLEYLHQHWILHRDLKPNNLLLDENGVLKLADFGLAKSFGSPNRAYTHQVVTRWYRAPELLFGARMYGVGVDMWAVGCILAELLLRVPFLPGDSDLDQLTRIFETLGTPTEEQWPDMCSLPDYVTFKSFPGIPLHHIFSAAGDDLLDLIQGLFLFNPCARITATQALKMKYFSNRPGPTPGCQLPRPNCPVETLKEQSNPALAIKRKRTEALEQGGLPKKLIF

[2] = target: Cyclin-dependent kinase 1 (Homo sapiens, UniProt P06493); assay: Inhibition of CDK1 (unknown origin)
Cyclin-dependent kinase 1, sequence (P06493 whole entry): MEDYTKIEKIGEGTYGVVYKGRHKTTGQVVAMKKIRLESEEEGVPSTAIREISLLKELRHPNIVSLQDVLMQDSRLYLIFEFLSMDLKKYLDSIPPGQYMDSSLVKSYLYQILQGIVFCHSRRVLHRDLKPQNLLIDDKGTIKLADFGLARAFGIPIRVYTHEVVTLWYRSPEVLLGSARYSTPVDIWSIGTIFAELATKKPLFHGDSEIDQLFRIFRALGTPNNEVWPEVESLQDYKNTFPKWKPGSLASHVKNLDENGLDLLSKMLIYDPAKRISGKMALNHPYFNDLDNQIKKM

[3] = target: Cyclin-dependent kinase 5 (Homo sapiens, UniProt Q00535); assay: Inhibition of CDK5 (unknown origin)
[4] = target: Cyclin-dependent kinase 6 (Homo sapiens, UniProt Q00534); assay: Inhibition of CDK6 (unknown origin)
[5] = target: T1, Cyclin-dependent kinase 7; assay: Inhibition of CDK7 (unknown origin)
[6] = target: Cyclin-dependent kinase 12 (Homo sapiens, UniProt Q9NYV4); assay: Inhibition of CDK12 (unknown origin)
[7] = target: Mitogen-activated protein kinase kinase kinase 7 (Homo sapiens) (UniProt O43318); assay: Inhibition of human partial length TAK1 (M1/Q303) expressed in mammalian system at 1 uM by KINOMEscan analysis relative to control
[8] = target: Aurora kinase A (Homo sapiens) (UniProt O14965); assay: Inhibition of human partial length Aurora-A (E122/K401) expressed in mammalian system at 1 uM by KINOMEscan analysis relative to control
Aurora kinase A (Homo sapiens), sequence (O14965 whole entry): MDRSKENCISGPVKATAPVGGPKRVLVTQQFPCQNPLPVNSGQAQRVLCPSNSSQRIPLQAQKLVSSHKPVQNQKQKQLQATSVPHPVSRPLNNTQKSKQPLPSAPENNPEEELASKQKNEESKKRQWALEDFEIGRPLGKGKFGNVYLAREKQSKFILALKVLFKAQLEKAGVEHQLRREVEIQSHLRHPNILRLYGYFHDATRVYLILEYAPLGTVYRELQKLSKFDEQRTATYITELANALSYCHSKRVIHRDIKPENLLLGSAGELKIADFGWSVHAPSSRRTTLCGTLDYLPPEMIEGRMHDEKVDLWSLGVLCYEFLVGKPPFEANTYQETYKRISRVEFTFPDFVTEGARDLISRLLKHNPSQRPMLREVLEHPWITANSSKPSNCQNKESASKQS

[9] = target: Serine/threonine-protein kinase 17A (Homo sapiens) (UniProt Q9UEE5); assay: Inhibition of human partial length wild type DRAK1 expressed in bacterial system at 1 uM by KINOMEscan analysis relative to control
[10] = target: Serine/threonine-protein kinase pim-1 (Homo sapiens) (UniProt P11309); assay: Inhibition of human partial length wild type Pim-1 (M1/E291) expressed in bacterial system at 1 uM by KINOMEscan analysis relative to control
[11] = target: ALK tyrosine kinase receptor (Homo sapiens) (UniProt Q9UM73); assay: Inhibition of human partial length ALK (I1088/E1409) expressed in mammalian system at 1 uM by KINOMEscan analysis relative to control
ALK tyrosine kinase receptor (Homo sapiens), sequence (Q9UM73 19-1620 limits assumed): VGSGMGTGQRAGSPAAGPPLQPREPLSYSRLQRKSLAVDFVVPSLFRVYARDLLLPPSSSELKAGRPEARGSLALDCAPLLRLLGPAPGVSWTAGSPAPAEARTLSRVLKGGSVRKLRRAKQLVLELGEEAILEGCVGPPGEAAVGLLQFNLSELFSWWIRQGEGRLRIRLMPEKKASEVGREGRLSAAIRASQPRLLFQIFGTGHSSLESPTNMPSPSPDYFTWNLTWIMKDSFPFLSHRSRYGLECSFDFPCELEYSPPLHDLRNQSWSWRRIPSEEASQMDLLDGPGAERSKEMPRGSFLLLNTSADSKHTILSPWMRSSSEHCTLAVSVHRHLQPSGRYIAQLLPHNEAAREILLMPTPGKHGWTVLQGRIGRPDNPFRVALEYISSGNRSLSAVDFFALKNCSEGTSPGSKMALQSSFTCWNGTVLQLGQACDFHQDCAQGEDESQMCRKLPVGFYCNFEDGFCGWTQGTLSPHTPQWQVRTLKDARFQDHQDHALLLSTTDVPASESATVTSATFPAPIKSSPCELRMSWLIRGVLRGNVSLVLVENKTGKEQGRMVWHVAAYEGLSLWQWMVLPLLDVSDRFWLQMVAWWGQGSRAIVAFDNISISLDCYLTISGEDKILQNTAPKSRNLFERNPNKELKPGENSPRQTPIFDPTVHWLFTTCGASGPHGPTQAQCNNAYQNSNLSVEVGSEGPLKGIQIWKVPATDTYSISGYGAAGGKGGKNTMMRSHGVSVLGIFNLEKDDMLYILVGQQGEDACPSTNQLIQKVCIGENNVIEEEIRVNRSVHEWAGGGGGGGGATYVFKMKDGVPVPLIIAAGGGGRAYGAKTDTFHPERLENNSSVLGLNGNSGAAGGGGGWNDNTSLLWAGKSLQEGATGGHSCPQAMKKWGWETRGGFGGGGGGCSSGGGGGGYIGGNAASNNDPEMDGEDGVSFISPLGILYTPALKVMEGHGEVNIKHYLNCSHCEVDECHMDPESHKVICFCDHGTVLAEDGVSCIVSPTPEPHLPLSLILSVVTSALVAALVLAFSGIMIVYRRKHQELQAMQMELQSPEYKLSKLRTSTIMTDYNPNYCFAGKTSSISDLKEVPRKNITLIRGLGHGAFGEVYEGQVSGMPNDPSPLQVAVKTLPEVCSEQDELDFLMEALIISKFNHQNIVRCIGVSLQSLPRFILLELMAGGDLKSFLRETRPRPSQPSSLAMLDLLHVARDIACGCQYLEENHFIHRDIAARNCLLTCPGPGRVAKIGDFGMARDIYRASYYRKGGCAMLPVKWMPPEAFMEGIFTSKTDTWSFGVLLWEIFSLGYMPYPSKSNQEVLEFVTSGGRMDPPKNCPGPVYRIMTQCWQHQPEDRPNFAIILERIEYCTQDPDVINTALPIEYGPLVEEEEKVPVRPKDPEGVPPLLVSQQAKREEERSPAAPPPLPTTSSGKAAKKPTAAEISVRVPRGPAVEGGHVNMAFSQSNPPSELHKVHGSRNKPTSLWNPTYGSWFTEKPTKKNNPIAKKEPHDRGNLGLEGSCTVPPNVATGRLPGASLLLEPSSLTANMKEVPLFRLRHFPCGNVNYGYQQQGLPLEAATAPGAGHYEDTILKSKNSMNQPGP

[12] = target: Casein kinase I isoform gamma-1 (Homo sapiens) (UniProt Q9HCP0); assay: Inhibition of human partial length wild type CKlgamma1 (T15/S353) expressed in bacterial system at 1 uM by KINOMEscan analysis relative to control
[13] = target: Eukaryotic elongation factor 2 kinase (Homo sapiens) (UniProt O00418); assay: Inhibition of human recombinant eEF-2K at 1 uM by radiometric assay relative to control
[14] = target: Ephrin type-B receptor 4 (Homo sapiens) (UniProt P54760); assay: Inhibition of human partial length wild type EphB4 (H585/G892) expressed in bacterial system at 1 uM by KINOMEscan analysis relative to control
Ephrin type-B receptor 4 (Homo sapiens), sequence (P54760 whole entry): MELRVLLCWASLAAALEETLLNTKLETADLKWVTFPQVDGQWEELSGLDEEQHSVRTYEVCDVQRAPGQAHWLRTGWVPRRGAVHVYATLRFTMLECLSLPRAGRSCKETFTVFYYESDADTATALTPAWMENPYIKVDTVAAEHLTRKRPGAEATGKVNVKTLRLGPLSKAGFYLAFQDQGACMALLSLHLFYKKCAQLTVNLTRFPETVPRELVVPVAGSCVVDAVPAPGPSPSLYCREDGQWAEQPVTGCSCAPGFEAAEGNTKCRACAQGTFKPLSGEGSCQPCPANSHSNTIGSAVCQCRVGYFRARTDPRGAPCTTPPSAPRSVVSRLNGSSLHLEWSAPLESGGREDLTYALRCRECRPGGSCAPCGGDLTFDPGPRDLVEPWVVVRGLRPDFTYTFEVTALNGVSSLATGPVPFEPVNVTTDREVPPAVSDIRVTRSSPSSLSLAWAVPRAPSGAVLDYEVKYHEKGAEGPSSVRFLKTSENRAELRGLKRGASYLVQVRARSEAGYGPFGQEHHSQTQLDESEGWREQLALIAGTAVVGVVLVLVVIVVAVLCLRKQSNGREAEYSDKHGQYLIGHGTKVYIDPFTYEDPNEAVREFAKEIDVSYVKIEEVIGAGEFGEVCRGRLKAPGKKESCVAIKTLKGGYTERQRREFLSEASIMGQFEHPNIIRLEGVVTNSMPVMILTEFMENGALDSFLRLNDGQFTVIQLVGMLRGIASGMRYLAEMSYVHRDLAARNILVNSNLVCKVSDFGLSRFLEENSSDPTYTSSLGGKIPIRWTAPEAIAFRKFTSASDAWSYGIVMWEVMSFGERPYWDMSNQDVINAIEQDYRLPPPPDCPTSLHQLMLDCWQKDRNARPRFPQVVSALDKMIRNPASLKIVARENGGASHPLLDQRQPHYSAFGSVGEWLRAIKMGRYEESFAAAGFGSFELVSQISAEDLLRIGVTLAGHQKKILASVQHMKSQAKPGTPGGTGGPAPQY

[15] = target: Inhibitor of nuclear factor kappa-B kinase subunit alpha (Homo sapiens) (UniProt O15111); assay: Inhibition of human full length wild type IKKalpha expressed in mammalian system at 1 uM by KINOMEscan analysis relative to control
[16] = target: Serine/threonine-protein kinase 10 (Homo sapiens) (UniProt O94804); assay: Inhibition of human partial length wild type LOK (E16/V314) expressed in bacterial system at 1 uM by KINOMEscan analysis relative to control
[17] = target: Tyrosine-protein kinase Lyn (Homo sapiens) (UniProt P07948); assay: Inhibition of human partial length wild type Lyn (C219/Q511) expressed in bacterial system at 1 uM by KINOMEscan analysis relative to control
[18] = target: Mitogen-activated protein kinase kinase kinase 9 (Homo sapiens) (UniProt P80192); assay: Inhibition of human partial length wild type MLK1 expressed in bacterial system at 1 uM by KINOMEscan analysis relative to control
[19] = target: Serine/threonine-protein kinase 4 (Homo sapiens) (UniProt Q13043); assay: Inhibition of human full length wild type MST1 expressed in mammalian system at 1 uM by KINOMEscan analysis relative to control
[20] = target: Serine/threonine-protein kinase Nek2 (Homo sapiens) (UniProt P51955); assay: Inhibition of human partial length wild type NEK2 expressed in bacterial system at 1 uM by KINOMEscan analysis relative to control
Serine/threonine-protein kinase Nek2 (Homo sapiens), sequence (P51955 whole entry): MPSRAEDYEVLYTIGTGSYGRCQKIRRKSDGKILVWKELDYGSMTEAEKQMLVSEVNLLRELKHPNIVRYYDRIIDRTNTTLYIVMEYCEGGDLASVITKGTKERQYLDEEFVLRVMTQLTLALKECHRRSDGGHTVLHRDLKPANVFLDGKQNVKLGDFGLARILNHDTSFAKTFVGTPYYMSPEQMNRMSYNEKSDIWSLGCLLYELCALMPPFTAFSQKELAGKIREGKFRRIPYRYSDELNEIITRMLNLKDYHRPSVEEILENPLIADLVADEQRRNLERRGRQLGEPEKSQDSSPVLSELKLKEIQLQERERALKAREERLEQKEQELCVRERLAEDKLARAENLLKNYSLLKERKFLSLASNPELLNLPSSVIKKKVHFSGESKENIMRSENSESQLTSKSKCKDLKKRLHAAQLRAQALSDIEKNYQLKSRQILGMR

[21] = target: Ribosomal protein S6 kinase beta-1 (Homo sapiens) (UniProt P23443); assay: Inhibition of human partial length wild type p70S6K (M1/S421) expressed in mammalian system at 1 uM by KINOMEscan analysis relative to control
[22] = target: Serine/threonine-protein kinase PAK 2 (Homo sapiens) (UniProt Q13177); assay: Inhibition of human partial length wild type PAK2 (P151/R525) expressed in bacterial system at 1 uM by KINOMEscan analysis relative to control
[23] = target: cAMP-dependent protein kinase catalytic subunit alpha (Homo sapiens) (UniProt P17612); assay: Inhibition of human recombinant PKA expressed in Escherichia coli at 1 uM by KINOMEscan analysis relative to control
[24] = target: RAC-alpha serine/threonine-protein kinase (Homo sapiens) (UniProt P31749); assay: Inhibition of PKBalpha (unknown origin) at 1 uM relative to control
[25] = species on record: Homo sapiens; assay: Inhibition of human partial length wild type PRAK (M1/R415) expressed in mammalian system at 1 uM by KINOMEscan analysis relative to control
[26] = target: Ribosomal protein S6 kinase alpha-1 (Homo sapiens) (UniProt Q15418); assay: Inhibition of human partial length wild type Rsk1 (M1/E388) expressed in bacterial system at 1 uM by KINOMEscan analysis relative to control
Ribosomal protein S6 kinase alpha-1 (Homo sapiens), sequence (Q15418 whole entry): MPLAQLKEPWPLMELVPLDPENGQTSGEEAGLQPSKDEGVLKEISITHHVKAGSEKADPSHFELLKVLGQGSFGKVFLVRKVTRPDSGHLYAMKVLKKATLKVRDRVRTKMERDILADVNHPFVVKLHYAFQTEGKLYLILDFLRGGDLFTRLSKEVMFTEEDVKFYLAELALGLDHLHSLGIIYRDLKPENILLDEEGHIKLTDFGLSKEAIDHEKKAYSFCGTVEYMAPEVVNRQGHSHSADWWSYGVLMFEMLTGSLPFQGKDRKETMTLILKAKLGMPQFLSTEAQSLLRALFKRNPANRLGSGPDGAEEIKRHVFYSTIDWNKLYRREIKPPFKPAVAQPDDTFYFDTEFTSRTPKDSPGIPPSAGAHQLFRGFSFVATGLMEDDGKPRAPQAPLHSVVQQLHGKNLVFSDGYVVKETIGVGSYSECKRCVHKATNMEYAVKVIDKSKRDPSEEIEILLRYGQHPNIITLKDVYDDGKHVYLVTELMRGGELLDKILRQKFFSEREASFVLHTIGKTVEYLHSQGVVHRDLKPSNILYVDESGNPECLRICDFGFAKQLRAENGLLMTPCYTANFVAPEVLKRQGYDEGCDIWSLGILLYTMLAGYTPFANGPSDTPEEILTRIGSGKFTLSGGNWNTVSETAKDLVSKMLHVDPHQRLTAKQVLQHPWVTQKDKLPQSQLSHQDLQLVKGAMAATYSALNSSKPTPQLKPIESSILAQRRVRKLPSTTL

[27] = target: PI3-kinase p110-delta/p85-alpha (Homo sapiens) (UniProt P27986+O00329); assay: Inhibition of PI3 Kinase p110delta/p85alpha (unknown origin) at 1 uM relative to control; assay type: protein-complex assay
[28] = AUClast in ICR mouse at 5 mg/kg, iv single dose measured upto 24 hrs; assay type: ADME, organism-based; parameters: dose 5 mg/kg, time < 24 hrs, route iv; conditions: in vivo
[29] = Observed AUC (infinitive) in ICR mouse at 5 mg/kg, iv single dose measured upto 24 hrs; assay type: ADME, organism-based; parameters: dose 5 mg/kg, time < 24 hrs, route iv; conditions: in vivo
[30] = Apparent permeability across basolateral to apical side in human Caco-2 cells measured after 120 mins by LC-MS/MS analysis; assay type: ADME, cell-based
[31] = AUClast in ICR mouse at 5 mg/kg, sc single dose measured upto 24 hrs; assay type: ADME, organism-based; parameters: time < 24 hrs, dose 5 mg/kg, route sc; conditions: in vivo
[32] = Cmax in ICR mouse at 5 mg/kg, sc single dose measured upto 24 hrs; assay type: ADME, organism-based; parameters: time < 24 hrs, dose 5 mg/kg, route sc; conditions: in vivo
[33] = species on record: Mus musculus; assay: Suppression of cyst formation in C57BL/6 mouse embryonic kidney cyst model at 1 to 3 uM measured for 4 to 12 […]; assay type: functional, organism-based; conditions: dose 1-3 µM, time 4-12 hrs
[34] = tested on: Mus musculus; assay: Reduction in cyst formation in kidney-specific Pkd1 knockout ADPKD mouse model assessed as renal cystic index at 5 mg/kg by HE staining analysis; assay type: functional, organism-based
[35] = tested on: Mus musculus; assay: Reduction in cyst size in kidney-specific Pkd1 knockout ADPKD mouse model assessed as renal cystic index at 5 mg/kg by HE staining analysis; assay type: functional, organism-based
[36] = Toxicity in wild type mouse assessed as kidney size at 5 mg/kg; assay type: organism-based; conditions: in vivo
[37] = tested on: Mus musculus; assay: Reduction in AMPD3 protein expression in kidney-specific Pkd1 knockout ADPKD mouse model assessed as protein expression in cyst-lining epithelial cell at 5 mg/kg by Western blot analysis; assay type: functional, organism-based

Question: Which IC50 [1] does the source give for `C=CC(=O)Nc1ccc(C(=O)Nc2n[nH]c3ccc(-c4cncc(NC[C@@H](O)c5ccccc5)c4)cc23)cc1` here?
Answer: 4 nM

Question: What about the IC50 [2] of the same molecule?
Answer: 3370 nM

Question: What about the IC50 [3] of the same molecule?
Answer: > 10000 nM

Question: And the IC50 [4]?
Answer: 950 nM

Question: What about the IC50 [5] of the same molecule?
Answer: 4 nM

Question: And the IC50 [6]?
Answer: > 10000 nM

Question: What about the inhibition [7] of the same molecule?
Answer: 76%

Question: What about the inhibition [8] of the same molecule?
Answer: 68%

Question: What about the inhibition [9] of the same molecule?
Answer: 66%

Question: And the inhibition [10]?
Answer: 57%

Question: What about the inhibition [11] of the same molecule?
Answer: < 50%

Question: What about the inhibition [12] of the same molecule?
Answer: < 50%

Question: And the inhibition [13]?
Answer: < 50%

Question: And the inhibition [14]?
Answer: < 50%

Question: And the inhibition [15]?
Answer: < 50%

Question: And the inhibition [16]?
Answer: < 50%

Question: And the inhibition [17]?
Answer: < 50%

Question: And the inhibition [18]?
Answer: < 50%

Question: And the inhibition [19]?
Answer: < 50%

Question: What about the inhibition [20] of the same molecule?
Answer: < 50%

Question: What about the inhibition [21] of the same molecule?
Answer: < 50%

Question: What about the inhibition [22] of the same molecule?
Answer: < 50%

Question: And the inhibition [23]?
Answer: < 50%

Question: What about the inhibition [24] of the same molecule?
Answer: < 50%

Question: What about the inhibition [25] of the same molecule?
Answer: < 50%

Question: What about the inhibition [26] of the same molecule?
Answer: < 50%

Question: What about the inhibition [27] of the same molecule?
Answer: < 50%

Question: What about the AUC(0-t) at 24 h [28] of the same molecule?
Answer: 26900 ng·h/mL

Question: What about the AUC(0-inf) [29] of the same molecule?
Answer: 31700 ng·h/mL

Question: And the Papp B→A at 2 h [30]?
Answer: 6 ×10⁻⁶ cm/s

Question: What about the AUC(0-t) at 24 h [31] of the same molecule?
Answer: 17300 ng·h/mL

Question: What about the Cmax [32] of the same molecule?
Answer: 3810 ng/mL

Question: What about the inhibition [33] of the same molecule?
Answer: Dose-Dependent Effect

Question: And the Activity [34]?
Answer: Active

Question: What about the Activity [35] of the same molecule?
Answer: Active

Question: And the Activity [36]?
Answer: Non-Toxic

Question: What about the Activity [37] of the same molecule?
Answer: Active
